The structures appear in SMILES notation. Entries after “also recorded” stand apart in the source; their conditions may differ.

The values below come from patent US9101579B2, “Inhibition of drug resistant cancer cells” (Celgene Corporation, priority 2012, dated 2015).

For assay [1], the system named is M14 melanoma cell line. Put plainly: Drug treatment and CellTiter-Glo cell viability assay, emergence of drug-tolerant expanded persisters (DTEP) in M14 cells. In kind it is cell-based. Particulars: for emergence of DTEPs, continuous co-treatment: 2 μM AZ628 + 0.5 nM (sub-lethal) romidepsin every 3 days, continuous schedule 45 days, FIG. 1. On the procedure:
(§1) The M14 melanoma and HCC827 non-small cell lung cancer cell (NSCLC) cell lines were purchased from American Type Culture Collection (ATCC; Manassas, Va.). Cells were cultured at 37° C./5% CO2 in RPMI-1640 medium (ATCC) supplemented with 10% FBS. AZ628 and Erlotnib were purchased from Selleck Chemicals (Houston, Tex.) and reconstituted in DMSO to 20 mM. Romidepsin (Celgene Corporation) was reconstituted in DMSO to 10 μM. All drugs were stored at −30° C.
(§2) Romidepsin was used at a final concentration of 1 nM for HCC827 cells and 0.5 nM for M14 cells. Conditioned media were replaced with fresh drug-containing media every three days (“continuous Q3D” schedule). The Q3D schedule was evaluated continuously over a period of 27-45 days, and also for shorter durations ranging from 3-21 days.
(§3) Cell viability was monitored periodically over 27-45 days using CellTiter-Glo (CTG). On select days, an equal volume (1 mL) of CTG was added to each well of the 24-well plates. The plates, wrapped with aluminum foil, were incubated on a shaking platform for 10 minutes. A 200 μL aliquot from each well was transferred to a new well of 96-well plates. The SpectraMax L (Molecular Devices; Sunnyvale, Calif.) was used to measure luminescence.
For orientation: ATP-based viability assays read luminescence as a measure of living cells.

Assay [2] relates to HCC827 non-small cell lung cancer cell line. Description: Drug treatment and CellTiter-Glo cell viability assay, emergence of drug-tolerant expanded persisters (DTEP) in HCC827 cells. In kind it is cell-based. The procedure: as §1, §2, §3
Conditioned medium was replaced with fresh drug-containing medium every three days. Starting on day 12, the drug-containing medium also included 1 nM romidepsin. Cell viability was monitored on days 0, 15, and 37 using CellTiter-Glo (CTG).

On to `C/C=C1\NC(=O)[C@H]2CSSCC/C=C/[C@H](CC(=O)N[C@H](C(C)C)C(=O)N2)OC(=O)[C@H](C(C)C)NC1=O` [romidepsin, (1S,4S,7Z,10S,16E,21R)-7-ethylidene-4,21-bis(1-methylethyl)-2-oxa-12,13-dithia-5,8,20,23-tetrazabicyclo[8.7.6]tricos-16-ene-3,6,9,19,22-pentone], for which the “emergence of DTEP, reduced romidepsin schedule” value in assay [1] (M14 cells treated with 2 μM AZ628, romidepsin 0.5 nM every 3 days for 2 weeks, FIGS. 3A and 3B) is “prevented the emergence of DTEP”. Also, the “number of romidepsin doses sufficient to prevent emergence of DTEP” value stood at 5 doses in assay [1] (M14 cells treated with 2 μM AZ628, romidepsin 0.5 nM every 3 days, FIGS. 3A and 3B); 4 doses in assay [2] (HCC827 cells treated with 2 μM Erlotinib, romidepsin 1.0 nM every 3 days, FIG. 3C). The “emergence of DTEPs, continuous co-treatment” value is listed as “prevented the DTEP emergence” in assay [1] (M14 cells); “prevented the emergence of DTEPs” in assay [1] (M14 cells, listed as romidespin); “prevented the emergence of DTEPs; also recorded: prevented the DTEP emergence” in assay [2] (HCC827 cells, 2 μM Erlotinib + 1.0 nM (sub-lethal) romidepsin every 3 days, continuous schedule 27 days, FIG. 2). For the same molecule, the “DTEP growth, short (6-hour) romidepsin exposure (wash-out)” value is given as “sufficient to prevent DTEP growth” in assay [1] (M14 cells, 2 μM AZ628, higher romidepsin concentration (0.5, 2 or 10 nM tested), 6-hour exposure on continuous schedule, FIG. 4A); “sufficient to prevent DTEP growth” in assay [2] (HCC827 cells, 2 μM Erlotinib, higher romidepsin concentration (1, 5 and 20 nM tested), 6-hour exposure on continuous schedule, FIG. 4B). Further, the “Erlotinib-resistant cells after delayed addition of romidepsin” value in assay [2] (HCC827 cells pretreated with 2 μM Erlotinib every 3 days, 1 nM romidepsin added from day 12, viability on days 0, 15, 37, FIG. 5) is recorded as “eliminated Erlotinib-resistant HCC827 cells”. Also, in assay [2] (HCC827 cells treated with 2 μM Erlotinib, romidepsin 1.0 nM every 3 days for 2 weeks, FIG. 3C), the “emergence of DTEPs, reduced romidepsin schedule” value is on record as “prevented the emergence of DTEPs”.

`C#Cc1cccc(Nc2ncnc3cc(OCCOC)c(OCCOC)cc23)c1` [Erlotinib]: in assay [2] (NSCLC (HCC827) cells, high concentration (100×IC50; 2 μM) Erlotinib, after 9 days), the “cell death on treatment with Erlotinib alone” value was “Massive cell death”.

Turning to `Cc1ccc(NC(=O)c2cccc(C(C)(C)C#N)c2)cc1Nc1ccc2ncn(C)c(=O)c2c1` [AZ628], the “outgrowth of DTPs into DTEPs under continued AZ628 alone” value in assay [1] (M14 cells, continued treatment with AZ628 2 μM every 3 days) is recorded as “yielding a large population of AZ628-resistant cells”. For the same molecule, the “cell death on treatment with AZ628 alone” value in assay [1] (M14 cells, high concentration (100×IC50; 2 μM) AZ628, after 9 days) is reported as “Massive cell death”.
